Experimental findings from patent US11964984B2, “TXNIP-TRX complex inhibitors and methods of using the same” (CITY OF HOPE, priority 2020, dated 2024) are described below.

One assay relates to human islets. Put plainly: BCL2/BAX ratio (apoptosis marker) in human islets under high glucose plus cytokines. The class given is cell-based. The settings on record: 25 mM glucose + TNFα, IL1β, IFNγ, 40 hours. How it is done: FIGS. 18A-18B. C30 and C38 compounds protect cells from apoptosis in human islets. 100 IEQ human islets (Hu 1178) were cultured in PIM(R)© containing NG (5.8 mM glucose) or HG (25 mM glucose), and TNFα (20 ng/ml), IL1β (20 ng/ml), IFNγ (200 ng/ml) for 40 hours with or without lead compounds. Total RNA was prepared and RT PCR performed. FIG. 18A: BCL2/BAX ratios are the mean±SEM from triplicates. Statistical analysis was performed for each column vs. HG, 3 cytokines using one-way ANOVA: *p<0.002. FIG. 18B: TXNIP relative mRNA levels. Data shown are the mean±SEM from triplicates. Statistical analysis was performed for each column vs. HG, 3 cytokines using one-way ANOVA: **p<0.0001.
In T1D, β-cell death involves necrosis and apoptosis. BCL2 limits BAX/BAK oligomerization, to impede the release of several apoptogenic molecules from mitochondria. Also, BCL2 binds to and inactivates BAX and other pro-apoptotic proteins, thereby inhibiting apoptosis. BAX and BAK disrupt the integrity of the mitochondrial outer membrane to promote apoptotic cell death. As such, the BCL2/BAX ratio is used as a marker of cell susceptibility to apoptosis. High levels of this ratio can serve as an indicator of the resistance of human cells to apoptosis. […]

Another assay has as its system TNF-α mRNA. In words: TNF-α mRNA expression in murine MIN6 pancreatic beta cells (RT-PCR). The class given is cell-based, mouse. The following applies: 25 mM glucose, 72 hours. How it is done:
FIGS. 4A-4B. […] MIN6 cells were cultured under 25 mM glucose with C30 and C38 at the indicated concentrations for 72 hours. Total RNA was prepared. RT-PCR was performed and data shown are the mean±SEM from triplicates. Statistical analysis was performed for each column vs. HG DMSO using one-way ANOVA: *p<0.0001. […] MIN6 cells were cultured under 25 mM glucose and treated with C30 and C38 at the indicated concentrations for 72 hours. Total RNA was prepared. RT-PCR was performed and data shown are the mean±SEM from triplicates. Statistical analysis was performed for each column vs. HG DMSO using one-way ANOVA: *p<0.0001.
To ascertain the relevance to pancreatic beta cells, we tested the effects of the lead compounds on key target gene mRNA levels in murine MIN6 pancreatic beta cells.
RNA extraction and quantitative RT-PCR. RNA was extracted using the Direct-zol™ RNA MiniPrep Plus (Zymo Research). Reverse transcription of RNA samples into cDNA was performed using the GeneAmp RNA PCR Kit (Applied Biosystems), dNTP (from Roche Applied Science), Rnase inhibitor, MULV Reverse Transcriptase and Random hexamers reagent (all from Invitrogen). Diluted cDNA was quantified using real-time PCR performed with Power SYBR Green qPCR MasterMix (Applied Biosystem) and 7500 real-time PCR system (Applied Biosystems). The HPRT1 gene was used as an internal control.

The target of a further assay is T1, TXNIP/TRX interaction (Homo sapiens, UniProt Q9H3M7).
T1 construct: endogenous in cells; host or cells: THP1 cells cultured under 25 mM glucose; nuclear cell extracts
T1 sequence (Q9H3M7 1-391): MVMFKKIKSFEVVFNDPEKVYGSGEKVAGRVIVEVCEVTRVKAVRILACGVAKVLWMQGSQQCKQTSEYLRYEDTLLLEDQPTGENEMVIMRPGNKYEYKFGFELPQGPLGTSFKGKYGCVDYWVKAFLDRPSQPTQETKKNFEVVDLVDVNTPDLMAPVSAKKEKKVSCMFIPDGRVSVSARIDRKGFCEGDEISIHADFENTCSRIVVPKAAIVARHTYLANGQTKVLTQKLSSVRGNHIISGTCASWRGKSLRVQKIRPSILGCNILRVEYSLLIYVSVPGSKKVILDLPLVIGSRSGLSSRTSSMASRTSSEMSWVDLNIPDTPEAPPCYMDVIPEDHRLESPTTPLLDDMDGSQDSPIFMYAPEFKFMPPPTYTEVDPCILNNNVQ
Put plainly: TXNIP/TRX co-immunoprecipitation in THP1 cells. The class given is cell-based. The following applies: 25 mM glucose, 5 uM compound, up to 72 hours. How it is done: FIG. 8. Effects of C30 and C38 on TXNIP/TRX interaction. THP1 cells were cultured under 25 mM glucose with 5 uM C30 or C38 for 72 hours. Aliquots were taken at different time points as indicated and nuclear cell extracts were prepared. Standard co-IP was performed with mouse anti-TRX Ab overnight. Beads were washed with buffer and blots treated with rabbit anti-TXNIP antibody (Ab) for detection of the complex (upper band).
Experimental testing of small molecules: We developed several different bench-based assays to perform rigorous and reproducible tests for the predicted hit molecules. These assays include testing direct binding to TXNIP as well as functional assays including under diabetic high glucose conditions. The assays are: (1) drug affinity responsive target stability test that tests the direct binding of the compounds. In this assay, when a compound binds to its target molecule, it can reduce the rate of its proteolytic digestion. (2) This assay looks for compounds that can interfere with the interaction between TXNIP and TRX in THP-1 monocytes treated with high glucose. TXNIP is highly expressed in cells treated with high glucose, and therefore would have high concentration of TXNIP/TRX complexes in the cell extract. Co-immunoprecipitation was done in these extracts through adding TRX antibody, and then the effects of compounds added were tested. […]

As for `c1ccc(CCNc2ncnc3c2oc2ccccc23)cc1` [Compound C38], the BCL2/BAX ratio result with human islets is “significantly increased BCL2/BAX ratios”. Further, the “TNF-α mRNA expression” value in the assay with TNF-α mRNA is reported as “tended to increase TNF-α mRNA expression”. Further, the “TXNIP association/interaction with TRX (co-IP band)” value at TXNIP/TRX interaction is listed as “this interference was clearly reduced”.
Taken in the same sequence, the figures for `COc1cc(N2CC[C@@H](c3ccc4ccccc4c3)[C@H](O)C2)nc(N)n1` [Compound C30] were “significantly increased BCL2/BAX ratios”, “tended to increase TNF-α mRNA expression” and “significantly reduced”.
